The target in experiment [1] is T1, Sigma intracellular receptor 2 (Rattus norvegicus, UniProt Q5U3Y7).
T1 sequence (Q5U3Y7 whole entry): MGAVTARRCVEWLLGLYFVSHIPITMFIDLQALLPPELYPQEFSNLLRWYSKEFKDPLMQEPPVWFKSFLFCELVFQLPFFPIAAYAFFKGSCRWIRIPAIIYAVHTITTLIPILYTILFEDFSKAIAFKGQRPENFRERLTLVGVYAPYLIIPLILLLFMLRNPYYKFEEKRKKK
The experiment in a line: Displacement of [3H]-DTG from sigma2 receptor in rat liver membranes after 120 mins by liquid scintillation counting. The format is cell membranes, Membrane. (In general: Loss of bound radioactivity is the signal in a displacement assay; it reports binding, not function.)

Experiment [2] is described as follows: Displacement of [3H]-(+)-MK 801 from PCP binding site of NMDA receptor in pig brain cortex membranes after 120 mins by liquid scintillation spectrometry. The format is cell membranes, Sus scrofa.
In experiment [3] the target is Sigma non-opioid intracellular receptor 1 (Cavia porcellus, UniProt Q60492). The experiment in a line: Displacement of [3H]-pentazocine from sigma1 receptor in guinea pig brain membranes after 120 mins by liquid scintillation counting. The format is cell membranes, Membrane.
Experiment [4] addresses C-8 sterol isomerase ERG2 (Saccharomyces cerevisiae S288c) (UniProt P32352). The experiment in a line: Inhibition of yeast sterol-delta8/7-isomerase assessed as accumulation of cholesta-8,14-dien-3beta-ol at 50 uM.
Experiment [5] has the same target. The experiment in a line: Inhibition of yeast sterol-delta8/7-isomerase assessed as accumulation of cholesta-7-en-3beta-ol at 50 uM.
For experiment [6] the target is unchanged. The experiment in a line: Inhibition of yeast sterol-delta8/7-isomerase assessed as accumulation of cholesta-5,7-dien-3beta-ol at 1 uM.
Experiment [7] has the same target. Nature of the experiment: Inhibition of yeast sterol-delta8/7-isomerase assessed as accumulation of cholesta-8-en-3beta-ol at 50 uM.
For experiment [8] the target is unchanged. Nature of the experiment: Inhibition of yeast sterol-delta8/7-isomerase assessed as accumulation of cholesta-5,7-dien-3beta-ol at 50 uM.
For experiment [9] the target is unchanged. The experiment in a line: Inhibition of yeast sterol-delta8/7-isomerase assessed as accumulation of cholesta-8,14-dien-3beta-ol at 1 uM.
The target is the same in experiment [10]. The experiment in a line: Inhibition of yeast sterol-delta8/7-isomerase assessed as accumulation of cholesta-7-en-3beta-ol at 1 uM.
The target is the same in experiment [11]. The experiment in a line: Inhibition of yeast sterol-delta8/7-isomerase assessed as accumulation of cholesta-8-en-3beta-ol at 1 uM.

pIC50, pKi: −log10 of the molar value. The source made the active and inactive calls. The calls are words filed in the database; no cut-off is given here.

This passage reports Ki, IC50 and inhibition results from ChEMBL document CHEMBL4043136, “Chiral-pool synthesis of 1,2,4-trisubstituted 1,4-diazepanes as novel σ1 receptor ligands” (Bioorg Med Chem, 2017).

Sequence of C-8 sterol isomerase ERG2 (Saccharomyces cerevisiae S288c) (P32352 whole entry, looked up): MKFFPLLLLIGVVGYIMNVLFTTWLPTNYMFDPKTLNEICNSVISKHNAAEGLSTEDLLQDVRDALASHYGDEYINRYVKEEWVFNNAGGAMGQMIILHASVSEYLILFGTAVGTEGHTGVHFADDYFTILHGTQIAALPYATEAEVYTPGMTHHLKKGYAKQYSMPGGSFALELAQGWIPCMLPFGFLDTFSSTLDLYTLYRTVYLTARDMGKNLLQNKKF
Sequence of Sigma non-opioid intracellular receptor 1 (Q60492 whole entry): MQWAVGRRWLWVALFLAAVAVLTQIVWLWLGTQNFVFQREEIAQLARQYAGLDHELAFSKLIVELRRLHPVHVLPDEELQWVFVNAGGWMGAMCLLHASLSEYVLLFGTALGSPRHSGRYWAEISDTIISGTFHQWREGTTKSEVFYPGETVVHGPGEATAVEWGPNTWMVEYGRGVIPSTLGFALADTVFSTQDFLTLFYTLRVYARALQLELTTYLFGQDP

In the case of `CCCCN1CCCN(CCCC)[C@H](Cc2ccccc2)C1`, the pKi (in general, the Ki on a negative log10 scale, so that one unit is a factor of ten) in experiment [1] is less than 6.00; in [3], 7.68. Besides, the pIC50 – broadly, the IC50 on a negative log10 scale, so that one unit is a factor of ten – in [2] was less than 6.00.

For the molecule `CC(C)=CCN1CCCN(Cc2ccccc2)[C@H](Cc2ccccc2)C1`, the inhibition result in experiment [4], in experiment [5], in experiment [6], in experiment [8] and in experiment [10] was “Active” throughout. The inhibition entry in experiment [7], in [9] and in experiment [11] was “inactive” in each case. Moreover, the pKi in experiment [1] was 6.49; in [3], 8.30. In addition, the pIC50 in experiment [2] was less than 6.00.

As to `c1ccc(C[C@@H]2CNCCCN2Cc2ccccc2)cc1`, the inhibition result in [4], in experiment [5], in experiment [6], in [8], in experiment [9] and in experiment [10] was “Active” each time. Besides, the inhibition result in experiment [11] was “Active”. Besides, the inhibition result in experiment [7] was “inactive”. For the same molecule, the pKi in [1] and in [3] was less than 6.00 each time. For the same molecule, in experiment [2], the pIC50 was less than 6.00.

Consider `CCCCN1CCCN(CCCCc2ccccc2)[C@H](Cc2ccccc2)C1`, for which the pKi in [1] was 6.03; in experiment [3], 7.89. The same molecule showed a pIC50 in experiment [2] of less than 6.00.

For `COc1ccc(CN2CCCN(Cc3ccccc3)[C@@H](Cc3ccccc3)C2)cc1`, the inhibition entry in experiment [4], in experiment [5], in experiment [6], in experiment [8], in experiment [9] and in experiment [11] was “Active” throughout. Also, the inhibition entry in [7] and in experiment [10] was “inactive” throughout. Besides, the pKi is less than 6.00 in [1] and 7.54 in experiment [3]. This molecule also showed a pIC50 in [2] of less than 6.00.

Regarding `CCCCN1CCCN(C)[C@@H](Cc2ccccc2)C1`, the pKi in experiment [1] is less than 6.00; in experiment [3], 6.92. Moreover, the pIC50 in experiment [2] is less than 6.00.

`CCCCN1CCCN(CCCCc2ccccc2)[C@@H](Cc2ccccc2)C1`: the pKi in experiment [1] was less than 6.00; in experiment [3], 8.21. In experiment [2], this molecule gave a pIC50 of less than 6.00.

In the case of `c1ccc(C[C@H]2CNCCCN2Cc2ccccc2)cc1`, the inhibition result in experiment [4], in [5], in [6], in experiment [9], in experiment [10] and in [11] was “Active” in each case. The inhibition entry in [7] and in [8] was “inactive” each time. For the same molecule, the pKi in experiment [1] was less than 5.00; in [3] it was less than 6.00. The pIC50 in experiment [2] is less than 6.00.

In the case of `C[C@H]1CN(CCCCc2ccccc2)CCCN1Cc1ccccc1`, the inhibition entry in experiment [6], in experiment [10] and in experiment [11] was “Active” throughout. The inhibition result in experiment [9] was “inactive”. In addition, the values for the pKi in experiment [1] and in [3] were 8.07 and 9.11, respectively. Besides, the pIC50 in experiment [2] is less than 6.00.

On to `CN1CCCN(Cc2ccccc2)[C@H](Cc2ccccc2)C1`, for which the inhibition result in experiment [4], in experiment [5], in [6], in experiment [7], in experiment [8] and in experiment [9] was “Active” each time. Also, in experiment [10], the inhibition result was “Active”. For the same molecule, the pKi in experiment [1] is less than 6.00; in experiment [3] it was 6.55. The inhibition result in [11] was “inactive”. In [2], this molecule had a pIC50 of less than 6.00.

Consider `c1ccc(CCN2CCCN(Cc3ccccc3)[C@H](Cc3ccccc3)C2)cc1`, for which the inhibition result in experiment [6], in [9], in experiment [10] and in [11] was “Active” each time. Besides, the pKi in [1] was less than 6.00; in experiment [3], 7.28. The pIC50 in experiment [2] is less than 6.00.

`c1ccc(CCCN2CCCN(Cc3ccccc3)[C@@H](Cc3ccccc3)C2)cc1`: the inhibition entry in [6], in experiment [9], in experiment [10] and in [11] was “Active” throughout. Further, the figures for the pKi in experiment [1] and in experiment [3] were 6.71 and 7.14, respectively. Moreover, the pIC50 in experiment [2] was less than 6.00.

For the molecule `CCCCN1CCCN(CCCC)[C@@H](Cc2ccccc2)C1`, the figures for the pKi in [1] and in experiment [3] were 6.56 and 7.74, respectively. Moreover, the pIC50 in [2] is less than 6.00.

Consider `C[C@@H]1CN(CCCCc2ccccc2)CCCN1Cc1ccccc1`, for which the inhibition entry in experiment [4], in experiment [7] and in experiment [9] was “inactive” throughout. Besides, the inhibition result in experiment [5], in [6], in [8], in experiment [10] and in [11] was “Active” throughout. For the same molecule, the pKi in [1] was 7.15; in [3] it was 9.08. In addition, the pIC50 in [2] is less than 6.00.

Take `COc1ccc(CN2CCCN(Cc3ccccc3)[C@@H](C(C)C)C2)cc1`: the inhibition entry in experiment [4] is “inactive”. For the same molecule, the inhibition result in experiment [5], in experiment [6], in experiment [7], in experiment [8], in [9] and in experiment [10] was “Active” throughout. Moreover, the inhibition entry in experiment [11] is “Active”. In addition, the values for the pKi in [1] and in experiment [3] were less than 6.00 and 7.70, respectively. Moreover, the negative-log IC50 (pIC50) in [2] was less than 6.00.

As to `c1ccc(CCCCN2CCCN(Cc3ccccc3)[C@@H](Cc3ccccc3)C2)cc1`, the inhibition entry in experiment [6], in experiment [9] and in experiment [10] was “Active” in each case. Moreover, the values for the negative-log Ki (pKi) in experiment [1] and in [3] were 6.43 and 7.42, respectively. The inhibition result in experiment [11] was “inactive”. The same molecule gave a pIC50 in experiment [2] of less than 6.00.

In the case of `CCCCN1CCCN(C)[C@H](Cc2ccccc2)C1`, the pKi was 6.00 in experiment [1] and 6.95 in experiment [3]. In experiment [2], this molecule had a pIC50 of less than 6.00.

In the case of `C[C@H]1CN(CC2CCCCC2)CCCN1Cc1ccccc1`, the inhibition entry in experiment [4], in experiment [7], in [9] and in [11] was “inactive” each time. Besides, the inhibition result in experiment [5], in [6], in [8] and in experiment [10] was “Active” in each case. Besides, the pKi is 8.13 in experiment [1] and 9.66 in experiment [3]. The pIC50 in experiment [2] is less than 6.00.

Regarding `COc1ccc(CN2CCCN(Cc3ccccc3)[C@H](C)C2)cc1`, the results for the pKi in experiment [1] and in experiment [3] were 6.37 and 9.29, respectively. The same molecule had a pIC50 in experiment [2] of less than 6.00.

`CCCCN1CCN(CCc2ccc(Cl)c(Cl)c2)CC1` had a pKi in experiment [3] of 9.26.

Consider `OCC(c1ccccc1)N1CCCN(Cc2ccccc2)[C@@H](Cc2ccccc2)C1` (some centres not stated), for which the pKi in [1] was less than 6.00; in experiment [3] it was 6.64. Besides, in experiment [2], the pIC50 was less than 6.00.

With `OC(CN1CCCN(Cc2ccccc2)[C@@H](Cc2ccccc2)C1)c1ccccc1` (some centres not stated), the values for the pKi in experiment [1] and in [3] were 6.04 and 6.63, respectively. Further, the pIC50 in experiment [2] is less than 6.00.

Turning to `CCCCN1CCCN(Cc2ccccc2)[C@@H](C)C1`, the inhibition result in [4] and in experiment [7] was “inactive” each time. The inhibition result in [5], in experiment [6], in experiment [8], in [9], in [10] and in experiment [11] was “Active” each time. The pKi in experiment [1] is 6.56; in [3], 9.21. Besides, the pIC50 in experiment [2] is less than 6.00.

For the molecule `COc1ccc(CN2CCCN(CC3CCCCC3)C[C@@H]2C)cc1`, the results for the pKi in experiment [1] and in experiment [3] were 7.72 and 8.96, respectively. The molecule also showed a pIC50 in experiment [2] of less than 6.00.

With `CC(C)[C@H]1CN(CC2CCCCC2)CCCN1Cc1ccccc1`, the inhibition entry in experiment [4] and in [11] was “inactive” each time. The inhibition result in [5], in experiment [6], in experiment [7], in experiment [8], in [9] and in [10] was “Active” throughout. The values for the pKi in experiment [1] and in experiment [3] were less than 6.00 and 8.22, respectively. In [2], this molecule gave a pIC50 of less than 6.00.

For the molecule `C[C@H]1CN(CC2CCCCC2)CCCN1Cc1ccc(Cl)cc1`, the results for the pKi in experiment [1] and in experiment [3] were 7.29 and 8.31, respectively. The molecule also showed a pIC50 in experiment [2] of less than 6.00.
